≈ marks a conversion by molar mass, not a printed value. Each block holds one compound with its values, some of them ahead of it.
How the values were obtained:
Type in all cases: physicochemical
[1] = Solubility of crystal form Form T in different solutions at 37° C. (about 60 mg in 2 mL, 2 h and 24 h; HPLC, pH, XRPD)
Protocol: Approximately 60 mg of the sample was weighed and added into a 4 mL bottle, and 2 mL of different solvents (water, pH 1.0, 3.0, 5.0, 7.0, 9.0, FaSSIF, FeSSIF, and SGF) were added and the mixtures were stirred at 37° C. for 24 h after adding magnetic stirring bar. Samples were taken at 2 and 24 h respectively. After filtration, the sample concentration in the filtrate was tested by HPLC, and the pH value of the filtrate and the XRPD of the remaining solid were also measured. The measured solubility of the sample in different solutions was as follows.

[2] = Solid stability of crystal forms (80° C., light exposure, 25° C./60% RH, 40° C./75% RH); purity by liquid chromatography and XRPD of the solids; settings: for Crystal form: XRPD
Protocol: A certain amount of API and malate crystal form VII-A were weighed and added into a liquid phase vial, and a total of 9 parallels were prepared. The 9 parallels were placed separately in 80° C. (open); 25° C., 60% RH (open); 40° C., 75% RH (open); and light stability box closed). The stabilities under conditions of: 80° C. for one day, light exposure for 10 days, as well as 25° C., 60% RH and 40° C., 75% RH for one and two weeks were tested, and the XRPD of the solids were measured.
A certain amount of crystal form B was weighed and added into a liquid phase vial, and a total of 9 parallels were prepared. 9 parallels were placed separately in 80° C.; 25° C., 60% RH, 40° C., 75% RH; and light stability boxe.

[3] = Solubility at 37° C. in buffer solutions with different pH (about 10 mg in 1 ml, 2 h and 24 h); filtrate concentration and pH, XRPD of remaining solid; settings: for solubility at 2 h / solubility at 24 h: 37 °C, thermodynamic from solid; for solubility at 2 h: read-out: Solubility at 37° C. (mg/ml) 2 h; for solubility at 24 h: read-out: Solubility at 37° C. (mg/ml) 24 h; for pH (24 h): filtrate
Protocol: Approximately 10 mg of malate crystal form VII-A and free base Form A were weighed separately, and 1 ml of buffer solutions with different pH were added to make the solution supersaturated, and the mixtures were stirred at 37° C. for 2 h and 24 hours. The samples were filtered, and the filtrates were measured to determine the concentration and pH value, and the remaining solid was subjected to XRPD determination. The specific results were as follows: […]

pH ([1]; FaSSIF, filtrate, 2 h): 6.72
pH ([1]; FaSSIF, filtrate, 24 h): 6.73
pH ([1]; FeSSIF, filtrate, 2 h): 6.50
pH ([1]; FeSSIF, filtrate, 24 h): 6.50
pH ([1]; SGF, filtrate, 2 h): 6.20
pH ([1]; SGF, filtrate, 24 h): 6.22
pH of the solution compared to the initial pH value ([1]; other solvents (water, pH 7.0, pH 9.0, FaSSIF)): did not change significantly
crystal form of remaining solid ([1]; other solvents (water, pH 7.0, pH 9.0, FaSSIF), XRPD): did not change
pH ([1]; pH 1.0, filtrate, 2 h): 5.13
pH ([1]; pH 1.0, filtrate, 24 h): 5.17
pH of the filtrate compared to the initial pH value of the buffer solution ([1]; pH 1.0, pH 3.0, pH 5.0, FeSSIF, and SGF): significant changes
solubility at 2 h ([1]; pH 1.0 solution, simulated gastric fluid, thermodynamic from solid, pH 1.0, 37° C., 2 h): 28000 µg/mL (≈ 48.7 mM)
solubility at 24 h ([1]; pH 1.0 solution, simulated gastric fluid, thermodynamic from solid, pH 1.0, 37° C., 24 h): 29300 µg/mL (≈ 51 mM)
pH ([1]; pH 3.0, filtrate, 2 h): 6.51
pH ([1]; pH 3.0, filtrate, 24 h): 6.52
solubility at 2 h ([1]; pH 3.0 solution, aqueous buffer, thermodynamic from solid, pH 3.0, 37° C., 2 h): 23100 µg/mL (≈ 40.2 mM)
solubility at 24 h ([1]; pH 3.0 solution, aqueous buffer, thermodynamic from solid, pH 3.0, 37° C., 24 h): 23200 µg/mL (≈ 40.4 mM)
pH ([1]; pH 5.0, filtrate, 2 h): 6.66
pH ([1]; pH 5.0, filtrate, 24 h): 6.67
solubility ([1]; pH 5.0 solution, aqueous buffer, thermodynamic from solid, 37° C., pH 5.0): ~8000 µg/mL (≈ 13.9 mM)
solubility at 2 h ([1]; pH 5.0 solution, aqueous buffer, thermodynamic from solid, pH 5.0, 37° C., 2 h): 8370 µg/mL (≈ 14.6 mM)
solubility at 24 h ([1]; pH 5.0 solution, aqueous buffer, thermodynamic from solid, pH 5.0, 37° C., 24 h): 8170 µg/mL (≈ 14.2 mM)
pH ([1]; pH 7.0, filtrate, 2 h): 6.99
pH ([1]; pH 7.0, filtrate, 24 h): 6.98
solubility at 2 h ([1]; pH 7.0 solution, aqueous buffer, thermodynamic from solid, pH 7.0, 37° C., 2 h): 60 µg/mL (≈ 0.104 mM)
solubility at 24 h ([1]; pH 7.0 solution, aqueous buffer, thermodynamic from solid, pH 7.0, 37° C., 24 h): 60 µg/mL (≈ 0.104 mM)
pH ([1]; pH 9.0, filtrate, 2 h): 8.77
pH ([1]; pH 9.0, filtrate, 24 h): 8.79
solubility at 2 h ([1]; pH 9.0 solution, aqueous buffer, thermodynamic from solid, pH 9.0, 37° C., 2 h): 2 µg/mL (≈ 0.00348 mM)
solubility at 24 h ([1]; pH 9.0 solution, aqueous buffer, thermodynamic from solid, pH 9.0, 37° C., 24 h): 2 µg/mL (≈ 0.00348 mM)
solubility at 2 h ([1]; simulated gastric fluid, thermodynamic from solid, SGF, 37° C., 2 h): 27600 µg/mL (≈ 48.1 mM)
solubility at 24 h ([1]; simulated gastric fluid, thermodynamic from solid, SGF, 37° C., 24 h): 27300 µg/mL (≈ 47.5 mM)
solubility ([1]; solutions: pH 1.0, thermodynamic from solid, 37° C., pH 1.0, pH 3.0, FeSSIF, and SGF): > 18000 µg/mL
solubility ([1]; thermodynamic from solid, 37° C., water, pH 7.0, pH 9.0, and FaSSIF): < 700 µg/mL
solubility at 2 h ([1]; thermodynamic from solid, FaSSIF, 37° C., 2 h): 670 µg/mL (≈ 1.17 mM)
solubility at 24 h ([1]; thermodynamic from solid, FaSSIF, 37° C., 24 h): 700 µg/mL (≈ 1.22 mM)
solubility at 2 h ([1]; thermodynamic from solid, FeSSIF, 37° C., 2 h): 18900 µg/mL (≈ 32.9 mM)
solubility at 24 h ([1]; thermodynamic from solid, FeSSIF, 37° C., 24 h): 18700 µg/mL (≈ 32.5 mM)
solubility at 2 h ([1]; thermodynamic from solid, water, 37° C., 2 h): 2 µg/mL (≈ 0.00348 mM)
solubility at 24 h ([1]; thermodynamic from solid, water, 37° C., 24 h): 3 µg/mL (≈ 0.00522 mM)
pH ([1]; water, filtrate, 2 h): 7.20
pH ([1]; water, filtrate, 24 h): 7.12
SMILES: CCc1nc2c(N)ncc(-c3ccc(N4CCC(N5CCN(CC)CC5)CC4)c(OC)c3)c2nc1NC1CCOCC1 [Form T, 3-ethyl-8-(4-(4-(4-ethylpiperazin-1-yl)piperidin-1-yl)-3-methoxyphenyl)-N2-(tetrahydro-2H-pyran-4-yl) pyridino [3,4-b]pyrazine-2,5-diamine]

Degradation (%) ([2]; 25° C., 60% RH (open), 1 week): 0.03%
Purity (%) ([2]; 25° C., 60% RH (open), 1 week): 95.81%
Crystal form ([2]; 25° C., 60% RH (open), 1 week): Unchanged
Degradation (%) ([2]; 25° C., 60% RH (open), 2 weeks): 0.32%
Purity (%) ([2]; 25° C., 60% RH (open), 2 weeks): 95.52%
Crystal form ([2]; 25° C., 60% RH (open), 2 weeks): Unchanged
Degradation (%) ([2]; 40° C., 75% RH (open), 1 week): 0.13%
Purity (%) ([2]; 40° C., 75% RH (open), 1 week): 95.71%
Crystal form ([2]; 40° C., 75% RH (open), 1 week): Unchanged
Degradation (%) ([2]; 40° C., 75% RH (open), 2 weeks): 1.06%
Purity (%) ([2]; 40° C., 75% RH (open), 2 weeks): 94.78%
Crystal form ([2]; 40° C., 75% RH (open), 2 weeks): Unchanged
Degradation (%) ([2]; 80° C. (open), 1 day): 0.62%
Purity (%) ([2]; 80° C. (open), 1 day): 95.22%
Crystal form ([2]; 80° C. (open), 1 day): Unchanged
Degradation (%) ([2]; Light contral, 10 days): 0.05%
Purity (%) ([2]; Light contral, 10 days): 95.79%
Crystal form ([2]; Light contral, 10 days): Unchanged
Degradation (%) ([2]; Light exposure, 10 days): 6.67%
Purity (%) ([2]; Light exposure, 10 days): 89.17%
Crystal form ([2]; Light exposure, 10 days): Unchanged
Purity (%) ([2]; initial): 95.84%
Degradation ([2]; light exposure and 40° C., 75% RH): varying degrees of degradation
solubility at 2 h ([3]; FeSSIF, fessif, medium FeSSIF, 2 h): > 10 mg/mL
solubility at 24 h ([3]; FeSSIF, fessif, medium FeSSIF, 24 h): > 10 mg/mL
solubility at 2 h ([3]; SGF, simulated gastric fluid, medium SGF, 2 h): > 10 mg/mL
solubility at 24 h ([3]; SGF, simulated gastric fluid, medium SGF, 24 h): > 10 mg/mL
pH (24 h) ([3]; medium FaSSIF): 6.524
pH (24 h) ([3]; medium FeSSIF): 5.796
pH (24 h) ([3]; medium H2O): 7.026
pH (24 h) ([3]; medium SGF): 1.644
pH (24 h) ([3]; medium pH 1.2): 1.605
pH (24 h) ([3]; medium pH 3.0): 4.601
pH (24 h) ([3]; medium pH 4.5): 5.468
pH (24 h) ([3]; medium pH 6.8): 6.775
pH (24 h) ([3]; medium pH 7.4): 7.389
Solubility at 37° C. (mg/ml) 2 h ([3]; medium FaSSIF, 2 h): >10 mg/mL
Solubility at 37° C. (mg/ml) 24 h ([3]; medium FaSSIF, 24 h): >10 mg/mL
Solubility at 37° C. (mg/ml) 2 h ([3]; medium H2O, 2 h): >10 mg/mL
Solubility at 37° C. (mg/ml) 24 h ([3]; medium H2O, 24 h): >10 mg/mL
Solubility at 37° C. (mg/ml) 2 h ([3]; medium pH 1.2, 2 h): >10 mg/mL
Solubility at 37° C. (mg/ml) 24 h ([3]; medium pH 1.2, 24 h): >10 mg/mL
Solubility at 37° C. (mg/ml) 2 h ([3]; medium pH 3.0, 2 h): >10 mg/mL
Solubility at 37° C. (mg/ml) 24 h ([3]; medium pH 3.0, 24 h): >10 mg/mL
Solubility at 37° C. (mg/ml) 2 h ([3]; medium pH 4.5, 2 h): >10 mg/mL
Solubility at 37° C. (mg/ml) 24 h ([3]; medium pH 4.5, 24 h): >10 mg/mL
Solubility at 37° C. (mg/ml) 2 h ([3]; medium pH 6.8, 2 h): >10 mg/mL
Solubility at 37° C. (mg/ml) 24 h ([3]; medium pH 6.8, 24 h): >10 mg/mL
Solubility at 37° C. (mg/ml) 2 h ([3]; medium pH 7.4, 2 h): >10 mg/mL
Solubility at 37° C. (mg/ml) 24 h ([3]; medium pH 7.4, 24 h): >10 mg/mL
SMILES: CCc1nc2c(N)ncc(-c3ccc(N4CCC(N5CCN(CC)CC5)CC4)c(OC)c3)c2nc1NC1CCOCC1 [Malate crystal form VII-A]

— patent US20250101017A1, “SALT CRYSTAL FORM AND FREE BASE CRYSTAL FORM OF KINASE INHIBITOR” (CYTOSINLAB THERAPEUTICS CO., LTD., priority 2022, published 2025)
